Source: US10874749B2, “Gene therapies for neurodegenerative disorders targeting ganglioside biosynthetic pathways” (priority 2015, dated 2020)

Columns and labels:
[1] = tested on: DAergic hES cells; assay: Rescue of DAergic hES cells from MPP+ toxicity (TH immunopositive cell count); type: cell-based, human
Protocol: Human stem cells were differentiated into a dopaminergic (DAergic) phenotype using a well characterized method (Iacovitti et al. 2007 as modified in Cai et al., 2013).
hES cells were plated onto 24 well plates. Cells were pretreated with sialidase, GM1 or standard media for 2 hrs and were then exposed to the mitochondrial toxin MPP^+. Twenty-four hours later, media containing toxin was removed and fresh media containing the appropriate concentration of rescue agent was added. Two days later, cells were fixed, processed for tyrosine hydroxylase (TH) immunocytochemistry and the number of TH immunopositive cells were counted.
FIGS. 3A and 3B depict the protection/rescue of human embryonic stem cells from MPP^+ toxicity. A) The number of tyrosine hydroxylase immunopositive (TH^+) cells was reduced as a result of MPP^+ treatment.
Accordingly, the examples and studies identify that human embryonic stem (hES) cells, when differentiated into dopaminergic neurons, are susceptible to MPP^+ toxicity. However, there are mechanisms that exist that can mitigate the effects of MPP^+ toxicity. Indeed, MPP^+ toxicity in hES cells is mitigated by both GM1 and 0.005 U/mL VCS. Therefore, treatment with a sialidase, such as sialidase Neu3 that increases the amounts of GM1 expression in the striatum and the substantia nigra will provide neuroprotective effects.

[2] = tested on: DA uptake; assay: Striatal uptake of tritiated dopamine (3H-DA) in striatal homogenates; type: in vivo, mouse; details: 3 minutes
Protocol: Whole striatal homogenates were exposed to [^3H] DA for 3 minutes in the presence or absence of mazindol to examine the influence of sialidase treatment on DA uptake.
In mouse studies as depicted in FIG. 4, striatal uptake of tritiated dopamine (^3H-DA) was examined. […] Striatal homogenates were incubated with ^3H-DA in the presence (non-specific) or absence (total) of the DA uptake inhibitor mazindol (Maz).

[3] = tested on: PD patients; assay: Randomized, controlled, delayed start clinical study of GM1 in PD patients; type: in vivo, human
From the text: The more highly expressed gangliosides in the brain are GM1, GD1a, GD1b, GT1b, and GD3. […] Although GM1 administration has promise as a treatment for PD, it is difficult to source, is currently available only as a natural product extracted and purified from animal brains, and has low ability to cross the blood brain barrier.
The mean (±SE) change from baseline in Early-start (randomized to receive GM1 at start of study) and Delayed-start (randomized to receive placebo at start of study) study subjects and in a standard-of-care comparison group (no interventions). The dashed vertical line at week 24 indicates the end of study Phase I. After that, all subjects received GM1. The dashed vertical line at week 120 indicates the end of study Phase II. The horizontal dashed line indicates baseline level. An increase of score indicates symptom worsening; a decrease in score indicates symptom improvement. *=p<0.0001 Early-start vs. Delayed-start; ^=p<0.05 Early-start vs. Delayed-start

[4] = cited from earlier work
[5] = tested on: YAC128 mice; details: cited from earlier work
[6] = hES cells differentiated to dopaminergic phenotype

Compound | protection/rescue from MPP+ toxicity (TH+ cells) ([1]; 0.005 U/mL VCS) | protection/rescue from MPP+ toxicity (TH+ cells) [1, 6] | total DA uptake (3H-DA) [2] | change from baseline in score, early effect ([3]; Early-start vs Delayed-start, Phase I to week 24) | change from baseline in score, later effect ([3]; Phase II to week 120) | clinical benefit and symptom progression ([3]; extended GM1 use up to 120 weeks) | improving motor symptoms vs placebo ([3]; first 24 weeks of the study) | number of tyrosine hydroxylase immunopositive (TH+) cells ([1]; 5 and 10 μM doses of MPP+, pretreated 2 hrs) | oral bioavailability [4] | bioavailability/penetrance across the blood brain barrier ([4]; systemically administered) | striatal dopamine levels ([5]; HD models, intracranial administration) | mHtt phosphorylation ([5]; YAC128 mice, infusion pump) | time to normalization of motor function from start of treatment ([5]; infusion pump, YAC128 mice symptomatic for motor impairment)
VCS: Sialidase V purified from Vibrio cholerae; cleaves a2-8 linkages and terminal a2-3 linkages | mitigated | protect/rescue cells from MPP^+ toxicity | – | – | – | – | – | – | – | – | – | – | –
OC1(c2ccc(Cl)cc2)c2ccccc2C2=NCCN21 (centres unmarked) [Mazindol, mazindol] | – | – | effectively blocked | – | – | – | – | – | – | – | – | – | –
GM1 | – | mitigated | – | early symptomatic effect | later disease modifying effect | sustained clinical benefit and lower than expected symptom progression | superior to placebo | prevented cell loss | no oral bioavailability | low | normalization | phosphorylation of mHtt at serine residues 13 and 16 | ≤ 2 weeks
